Assay results published in US6720450B2, “Pesticidal activity of functionalized cyclopropanes” (North Carolina State University, priority 2001, dated 2004).

Test system: mosquito larvae
Test: Mosquito larval mortality bioassay in microtiter plates
Format: in vivo
Conditions: 72 h; larval mortality followed for three days; 160 μL sterile water, 1-4 μL test compound in dimethylsulfoxide, 10 μL 2% Brewer's yeast
Method: The term “LC50” also is used hereinafter and refers to the concentration of a pest-controlling compound of the invention in the ambient environment of the pest species that is able to cause a 50% mortality of such species. For example, in tests described hereinafter, wherein compounds of the invention are tested for pesticidal efficacy against mosquito larvae, the compounds are present in a state of dynamic equilibrium in the aqueous environment containing the yeast and are taken up by the filter-feeding mosquito larvae during their feeding on the yeast.
(§1) Mosquito larval mortality was followed for three days in microtiter plates containing 160 μL sterile water, 1-4 μL of the test compound dissolved in dimethylsulfoxide, and 10 μL of 2% Brewer's yeast.
as §1, with “yeast. Controls were run under the same conditions without the test compounds. Larval mortality in the controls was 3% for 1-3 μL dimethylsulfoxide, and up to 20% for 4 μL dimethylsulfoxide.” for “yeast.”

First: O=C(O)CCC1CC1CCC1CCCCC1 (stereo not drawn) [IBI-216, 7-Cyclohexyl-trans-(4,5-methano)heptanoic acid]
Second: O=C(O)CCC1CC1CCc1ccccc1 (stereo not drawn) [IBI-215, 7-Phenyl-trans-(4,5-methano)heptanoic acid]
The LC50 of the first is 1.7-fold higher: 300 ± 10 µM for the first, 180 ± 30 µM for the second.

Compound `O=C(O)CCC1CC1CCc1ccc(-c2ccccc2)cc1` (stereo not drawn) [IBI-217, 7-(4-Phenyl)phenyl-trans-(4,5-methano)heptanoic acid] has an LC50 of 130 ± 40 µM.
